Assay results: patent US20240262844A1, “PYRIDINIUM SALTS AND METHODS OF USE” (UNIVERSITY OF WYOMING, priority 2023, published 2024)
Several values for one entry are separate records, joined by “and”; a condition that tells them apart may be missing. Identical values can stand only once. Entries after “also recorded” stand apart in the source; their conditions may differ. Counter-ions that a name gives are not always drawn.

Tests used:
[1] = tested on: HEK293T lysates; assay: Chemoproteomic profiling of HEK293T lysates (protein-level enrichment); assay type: biochemical, Human; settings: for proteome labeling profile, streptavidin-HRP Western blot of elution profiles: 0-100 μM probe, with and without irradiation, before digestion; for number of proteins identified (from ≥2 unique peptides) with ≥2-fold enrichment versus DMSO: about 100 μM probe, 60 min incubation, 20 min irradiation (302 nm 1a, 320 nm 1b, 440 nm 2b)
Method: In lysate tryptophan probe treatment for protein-level characterization: HEK293T cell pellets were suspended in native lysis buffer (50 mM HEPES pH 7.5, 150 mM sodium chloride (NaCl), 1.5 mM MgCl2, 1 mM DTT, 0.8% NP-40, 5% glycerol, and 1x protease inhibitors (Thermo)) at 2x the pellet volume. The samples were sonicated on ice for 30 seconds at 20% amplitude with a 2 second pulse ON and 3 second pulse OFF. Cell debris was removed by centrifugation at 20,000×g for 20 minutes at 4° C. Protein concentration was determined by bicinchoninic acid (BCA) (Pierce) and diluted down to 5 mg/mL with ChemProt buffer (50 mM HEPES pH 7.5, 150 mM NaCl, 1.5 mM MgCl2, 1 mM DTT, 0.4% NP-40, and 1x protease inhibitors (Thermo). 5 mg cell lysates were treated with 100x stocks of the tryptophan probes (pyridinium salts 1a, 1b, and 2b) to generate final concentrations (0, 1, 10, and 100 μM) in 1% DMSO. Lysates were incubated for 1 hour at 4° C. followed by photo-activation at respective wavelengths for 20 minutes at 4° C. Excess probe was removed using Sephadex G-25 PD-10 desalting columns (GE Healthcare) pre-equilibrated with 50 mM HEPES pH 7.5, 150 mM NaCl, 1.5 mM MgCl2, and 0.4% NP-40. The samples were then treated with 100 μL Neutravidin resin as a 50% slurry (Peirce). The samples were incubated overnight on a rotating apparatus at R.T. The following day, the beads were transferred to a MobiCol column (Boca Scientific), washed 3× with phosphate buffered saline (PBS) containing 0.2% SDS, washed 3x with PBS, and the enriched proteins were eluted with 2×NuPAGE lithium dodecyl sulfate (LDS) containing 10 mM DTT (Pierce) and heated for 30 minutes at 55° C. The eluent was collected and subsequently treated with 20 mM iodoacetamide (Pierce) for 30 minutes at R.T. protected from light. Samples were passed through detergent removal columns (Pierce) that were pre-equilibrated with 50 mM HEPES pH 8.0. The samples were treated with 2.5 μg Trypsin/LysC (Promega) at 37° C. for 16 hours. The following day, the sample was collected and prepped for isobaric labeling with TMT reagents (Thermo) as specified by the manufacturer.
Quantitative proteomics by two-dimensional nano liquid chromatography-tandem mass spectrometry (nLC-MS/MS): For protein-level characterization, the TMT-labeled sample were reconstituted in 0.1% formic acid (FA)/2% acetonitrile for offline high-pH reversed phase separation (RP10) using a Dionex UltiMate 3000 high-performance liquid chromatography (HPLC) system with fraction collection using Chromeleon v.6.8 (Thermo) software. Separation was achieved on a Waters Xbridge C18 3.5 μm 2.1×150 mm HPLC column (Waters) using a flow rate of 250 μL min-1 and the following ternary gradient and conditions: mobile phase A=water (HPLC grade), mobile phase B=acetonitrile (HPLC grade), and mobile phase C=200 mM ammonium acetate, pH 10. Mobile phase C is held at 10% throughout gradient. Starting conditions are 89% mobile phase A and 1% mobile phase B, ramping mobile phase B to 80% over 65 min. Fractions were collected in 96-well plates at 100 see per well. Fractions were reduced down to 12 fractions, dried, and reconstituted in 0.1% FA/2% acetonitrile for nLC-MS/MS. All data were acquired using a Orbitrap Fusion Lumos coupled to an Easy-nLC 1200 nanoflow liquid chromatograph operating at 300 nL min^−1. Peptides were cleaned up using a 1 cm online custom trap then eluted on a custom 20 cm laser pulled 75 μm column with C18 resin. Peptides were quantified using the synchronous precursor selection (SPS-MS3) or HCD method for TMT quantitation with 120k MS1 resolving power, 50 ms max injection time and 100% AGC. MS2 spectra were selected using the top ten most abundant features with a charge state between 2-6 using CID (collision induced dissociation) in the ion trap. The AGC was set to 100% with an isolation width of 0.7. MS3 was performed on the top 10 most abundant MS2 features between 400-1600 amu with a collision energy of 55%, AGC of 250%, and 50k resolution. […]

[2] = molecular target: T1, lysozyme (14.3 kDa) (Gallus gallus, UniProt P00698); assay: Photochemical labeling of lysozyme (LC/MS); assay type: biochemical, chicken; settings: 500 μM pyridinium salt 2c, 300 μM glutathione
T1 construct: Lysozyme (from chicken egg white, >40,000 units/mg of protein); purchased Sigma Aldrich; host or cells: chicken egg white
T1 sequence (P00698 19-147): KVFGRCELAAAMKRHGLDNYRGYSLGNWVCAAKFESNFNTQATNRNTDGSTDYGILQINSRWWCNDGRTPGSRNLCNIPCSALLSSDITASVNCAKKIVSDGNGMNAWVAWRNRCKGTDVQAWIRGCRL
Method: General Procedure B: Photochemical Irradiation of Peptides and Proteins: To a 2 mL Pyrex LC/MS vial (Thermo model #03-391-39) were sequentially added solutions containing the desired biomolecule, glutathione (GSH), pyridinium salt, and ammonium acetate (NH4OAc). The resulting solution was diluted to a final volume of 500 μL and then sparged using nitrogen for a minimum of 30 minutes prior to irradiation. The actively sparging solution was then placed in an EvoluChem™ PhotoRedOx Box photoreactor that was equipped with a Kessil, PR160 427 nm LED Lamp and was then irradiated (100% lamp intensity) for the designated time at room temperature while maintaining active sparging. The resultant reaction mixture was then analyzed directly by LC/MS. Analysis of labeling outcomes using LC/MS was performed either by extracted ion chromatogram intensities (method A) or by integrating the area under the peaks associated with peptide content (method B). These values were totaled, and estimated percentages were assigned according to relative intensities of peaks or ion counts.
Labeling of Lysozyme with Pyridinium Salt 2a (Lysozyme-2a Conjugate). Labeling of lysozyme (14.3 kDa) with the pyridinium salt 2a was performed by following general procedure B using the following solutions: lysozyme (27 μL, 182 μM, 10 μM final concentration), pyridinium salt 2a (200 μL, 500 μM, 200 μM final concentration), NH4+OAc (100 μL, 100 mM, pH=6.9, 20 mM final concentration), glutathione (15 μL, 10 mM, 300 μM final concentration), and water (158 μL) with a 100% intensity irradiation time of 60 minutes. The reaction mixture was analyzed directly by LC/MS using method A and was estimated to have proceeded in >95% conversion and a 10.9:1 mono:di labeled ratio and 10% glutathionylation of all unlabeled and labeled protein content was observed.
Labeling of Lysozyme with Pyridinium Salt 2b (Lysozyme-2b Conjugate). Labeling of lysozyme (14.3 kDa) with the pyridinium salt 2b was performed by following general procedure B using the following solutions: lysozyme (19 μL, 262 μM, 10 μM final concentration), 2b (181 μL, 554 μM, 200 μM final concentration), NH4OAc (50 μL, 200 mM, pH=6.9, 20 mM final concentration), glutathione (50 μL, 3 mM, 300 μM final concentration), and water (200 μL) with a 100% intensity irradiation time of 10 minutes. The reaction mixture was analyzed directly by LC/MS using method A and was estimated to have proceeded with 83% conversion. Partial oxidation at biotin obfuscated estimation of both oxidation and glutathionylation. Lysozyme-2b conjugate (retention time (Tr)=2.80-5.17 min).
Labeling of Lysozyme with Pyridinium Salt 2c (Lysozyme-2c Conjugate). Labeling of lysozyme (14.3 kDa) with the pyridinium salt 2c was performed by following general procedure B using the following solutions: lysozyme (19 μL, 262 μM, 10 μM final concentration), pyridinium salt 2c(367 μL, 680 μM, 500 μM final concentration), NH4OAc (50 μL, 200 mM, pH=6.9, 20 mM final concentration), glutathione (50 μL, 3 mM, 300 μM final concentration), and water (14 μL) with a 100% intensity irradiation time of 10 minutes. The reaction mixture was analyzed directly by LC/MS using method A and was estimated to have proceeded with 85% conversion and a 3.7:1 mono:di labeled ratio and 10% glutathionylation of all protein content was observed. Lysozyme-2c conjugate (retention time (Tr)=3.11-5.07 min).
Labeling of Lysozyme with Pyridinium Salt 2d (Lysozyme-2d Conjugate). Labeling of lysozyme (14.3 kDa) with the pyridinium salt 2d was performed by following general procedure B using the following solutions: Lysozyme (16.8 μL, 0.297 mM solution in H2O, final concentration […]), pyridinium salt 2d (91.8 μL, 1.09 mM solution in CH3CN/H2O (2:3), final concentration 200 μM), NH4OAc (50 μL, 200 mM in H2O, final concentration 20 mM, pH 6.9), glutathione (15 μL, 10 mMsolution in H2O, final concentration 300 μM), and water (326.4 μL) with a 100% intensity irradiation time of 20 minutes. […]

[3] = Water solubility of salt forms; assay type: physicochemical; settings: trifluoroacetate salt compared to the tetrafluoroborate salt
Method: Pyridinium salt 2c was synthesized by adapting general procedure A as follows: To a flame dried round-bottom flask equipped with a stir bar was added 4-(6-methoxynaphthalen-2-yl)-2,6-dimethylpyrylium tetrafluoroborate (S2) (80 mg, 0.23 mmol), 6-((4R,5S)-5-methyl-2-oxoimidazolidin-4-yl)hexyl 1-methylhydrazine-1-carboxylate S6 (110 mg, 0.404 mmol), and ethanol (1.2 mL) and stirred for 24 hours at 60° C. The reaction mixture was then concentrated using a rotary evaporator. The resulting residue was dissolved in dichloromethane and washed with 10% fluoroboric acid (HBF4, aqueous) (2×10 mL), saturated NaBF4 (aqueous) (2×10 mL), dried over […], filtered, and concentrated using a rotary evaporator. The resulting green solid was then sonicated in hexanes followed by decanting of the supernatant. This procedure was repeated 5 times and the resulting solid was dried under vacuum to obtain the tetrafluoroborate salt of 2c as a green solid (119 mg, 76%). The tetrafluoroborate salt of 2c was further purified by HPLC using general method B to yield the trifluoroacetate (X=TFA, CF3CO2^−) salt of 2c.

Compound: Cc1cc(C)[n+](N(C)C(=O)OCCCCC[C@@H]2SC[C@@H]3NC(=O)N[C@@H]32)c(C)c1 [Pyridinium salt 1a, 2,4,6-trimethyl-1-(methyl(((5-((3aS,4S,6aR)-2-oxohexahydro-1H-thieno[3,4-d]imidazol-4-yl)pentyl)oxy)carbonyl)amino)pyridin-1-ium tetrafluoroborate]
- proteome labeling profile, streptavidin-HRP Western blot of elution profiles [1]: concentration and optically dependent proteome labeling profiles; also recorded: loss of signal
- number of proteins identified (from ≥2 unique peptides) with ≥2-fold enrichment versus DMSO [1]: 185 proteins

Compound: Cc1cc(-c2ccccc2)cc(C)[n+]1N(C)C(=O)OCCCCC[C@@H]1SC[C@@H]2NC(=O)N[C@@H]21 [Pyridinium salt 1b, 2,6-dimethyl-1-(methyl(((5-((3aS,4S,6aR)-2-oxohexahydro-1H-thieno[3,4-d]imidazole-4-yl)pentyl)oxy)carbonyl)amino)-4-phenylpyridin-1-ium tetrafluoroborate]
- proteome labeling profile, streptavidin-HRP Western blot of elution profiles [1]: concentration and optically dependent proteome labeling profiles; also recorded: dose-response profiles
- number of proteins identified (from ≥2 unique peptides) with ≥2-fold enrichment versus DMSO [1]: 365 proteins

Compound: COc1ccc2cc(-c3cc(C)[n+](N(C)C(=O)OCCCCCC[C@H]4NC(=O)N[C@H]4C)c(C)c3)ccc2c1 [Pyridinium salt 2c, 4-(6-methoxynaphthalen-2-yl)-2,6-dimethyl-1-(methyl(((6-((4R,5S)-5-methyl-2-oxoimidazolidin-4-yl)hexyl)oxy)carbonyl)amino)pyridin-1-ium trifluoroacetate]
- conversion ([2]; 10 μM lysozyme, 20 mM NH4OAc pH 6.9, 427 nm, 10 minutes, trifluoroacetate): 85% and 86%
- glutathionylation of all protein content ([2]; 10 minutes irradiation): 10%
- water solubility [3]: superior water solubility
